This note sets out measurements from patent US20180360799A1, “Nitrofuran Derivatives That Induce Apoptosis in Breast Cancer Cells by Activating Protein Expression” (Oklahoma Medical Research Foundation, priority 2015, published 2018).

SMILES strings stand for the structures.

As a reminder, the IC50 is the concentration that gives 50% inhibition.

One assay deals with CHOP protein. The assay can be described thus: CHOP protein by Western blotting in HCC-1806 cells. The format is cell-based, human. The note with it: 10 μM, significant increases between 4 h and 24 h. The procedure: FIG. 3B is an image showing CHOP […] expression levels after treatment with a 5-nitrofuran-2-amide derivative. Cells were treated with compound 3d (10 μM) for the indicated times, and CHOP protein levels were analyzed by Western blotting. α-Tubulin was used as a loading control. The data shown are representative of 3 independent studies.
HCC-1806 cells were seeded in 60-mm dishes at 8×10^5 cells/dish and treated for the indicated times. Cells were then washed with PBS and lysed with lysis buffer (Cell Signaling Technology, Danvers, Mass., US) containing EDTA and phosphatase inhibitors. Aliquots of 20 μg total protein were separated on 7% SDS-PAGE gels (Life Technologies, Carlsbad, Calif., US) and transferred to PVDF membranes. The membranes were probed with primary antibodies followed by the appropriate HRP-conjugated secondary antibodies (goat anti-rabbit IgG and goat anti-mouse IgG, 1:3000; Santa Cruz Biotechnology, Santa Cruz, Calif., US). Blots were then developed. The primary antibodies and dilutions used were: CHOP (1:1000 no. MA1-250; Thermo, IL, US), cleaved caspase 3 (1:1000 no. 9661; Cell Signaling Technology), ATF4 (1:1000 no. 10835-1-AP; ProteinTech Group, IL, US), p-eIF2α (Ser51) (1:1000 no. 9721; Cell Signaling Technology), and α-tubulin (1:2000 no. SC-8035; Santa Cruz Biotechnology).

The subject of a further assay is HCC-1806 cells. In words: Cell viability, CellTiter-Glo, HCC-1806. The settings on record: Homo sapiens, HCC1806, 72 h; Table 2; cancer cell viability, 3 d treatment; read-out: HCC-1806 IC50. The class given is cell-based. As for the experimental part:
Given the known functions of CHOP in ER stress-induced apoptosis^16, 17 and in regulating cancer cell death,^6, 19, 20 the inventor investigated whether compound 1 affects the viability of TNBC cells. Three human TNBC cell lines, HCC-1806, HCC-1143, and HCC-38, were treated with doses of 1 ranging from 0.125 μM to 20 μM and their viability was assessed using the CellTiter-Glo assay, which measures intracellular ATP levels.
HCC-1806, HCC-1143, or HCC-38 cells were seeded at 3×10^3 cells/well in a 384-well plate and treated with compounds at the indicated concentrations. After 3 d treatment, the medium was aspirated and 20 μL/well of CellTiter-Glo reagent was added. Cell viability was measured with an EnVision multilabel plate reader. The IC50 value for cell viability of each compound was calculated with GraphPad Prism (La Jolla, Calif., US).

A further assay relates to ATF4 mRNA. The assay can be described thus: ATF4 mRNA by qRT-PCR. The format is cell-based, human. The settings on record: 10 μM, indicated times. The text has this: Results are the means of 4 replicate wells and are representative of 3 independent studies. *P<0.05 by Student's t-test compared with DMSO-treated cells. Prolonged or severe ER stress activates CHOP expression primarily through the PERK branch of the unfolded protein response, although the IRE1α and ATF6 branches also contribute.^5, 18 The 5-nitrofuran-2-amide derivatives could induce CHOP expression by acting as an ER stressor that activates all three branches of unfolded protein response or by preferentially activating a select branch of unfolded protein response. To distinguish between these possibilities, the inventor investigated which branches of the unfolded protein response were affected by compound 3d. […] Total RNA was extracted using TRIzol reagent (Invitrogen, Carlsbad, Calif.) according to the manufacturer's protocol, and 2 μg of total RNA was reverse transcribed using a Superscript kit (Invitrogen). Real-time PCR was performed in 96-well format using SYBR Select Master Mix (Applied Biosystems, Foster City, Calif.) with an ABI 7500 PCR system (Applied Biosystems). The primer sequences used were: Human CHOP: SEQ ID NO: 1 [NT] and SEQ ID NO: 2 [NT]. Human ATF4: SEQ ID NO: 3 [NT] and SEQ ID NO: 4 [NT]. Human XBP1: SEQ ID NO: 5 [NT] and SEQ ID NO: 6 [NT]. Human Cyclophilin A: SEQ ID NO: 7 [NT] and SEQ ID NO: 8 [NT]. Human GAPDH: SEQ ID NO: 9 [NT] and SEQ ID NO: 10 [NT].
Background: In qPCR the cycle at which signal appears reflects the starting amount.

The subject of assay [1] is UPRE-Luciferase (UPRE-Luc) reporter. The assay can be described thus: UPRE-Luc reporter assay in HEK293 cells. The class given is cell-based, human. The settings on record: 3d 10 μM or Tm 1 μg/mL, 24 h. The procedure:
FIG. 3G is a graph showing HEK293 cells stably expressing CHOP-Luc, ERSE-Luc, or UPRE-luc reporters were treated with DMSO, a 5-nitrofuran-2-amide derivative, or tunicamycin. HEK293 cells stably expressing CHOP-Luc, ERSE-Luc, or UPRE-luc reporters were treated with DMSO, compound 3d (10 μM), or Tm (1 μg/mL) for 24 h, and luciferase activity was measured using the Bright-Glo assay. Results are the means of 4 replicate wells and are representative of 3 independent experiments.
The inventor next asked whether the IRE1α and ATF6 branches of the unfolded protein response were also activated by compound 3d treatment of TNBC cells. […] XBP1 mRNA splicing, as measured by XBP1s levels, increased only slightly in the first 24 h after compound 3d treatment of HCC-1806 cells (from 11% of total XBP1 at 0 h to 15˜20% at 2˜24 h). […] Next, it was determined whether compound 3d activates the ATF6 pathway by evaluating its effect on the activity of an ER stress response elements (ERSE)-Luc reporter stably established in HEK293 cell line.
The HEK293T CHOP reporter cell line (CHOP-Luc) was previously described.^21 HEK293T cells were stably transfected with ERSE-Luciferase^25 and UPRE-Luciferase^23 reporters to generate ERSE-Luc and UPRE-Luc reporter cell lines, respectively. […] Luciferase activity was measured with a Bright-Glo kit 24 h later.
(In general: In a reporter assay the amount or activity of a reporter protein is the signal.)

Turning to `CC1CCN(c2ccc(NC(=O)c3ccc([N+](=O)[O-])o3)cc2)CC1` [Compound 3d], the CHOP protein levels result with CHOP protein is “increased CHOP protein levels”. In addition, the IC50 in the assay on HCC-1806 cells amounted to 2800 nM. The “ATF4 expression, mRNA” value with ATF4 mRNA is “significantly increased ATF4 expression”. For the same compound, in assay [1], the “increase of UPRE-Luc luciferase activity” value was “less than 2 fold”.
